{"source": "paper PMC12069692", "about": "“Pharmacological inhibition of PLK1/PRC1 triggers mitotic catastrophe and sensitizes lung cancers to chemotherapy” (Cell Death & Disease, 2025)", "molecular_target": "T1, PLK1 (Homo sapiens, UniProt P53350)", "T1 construct": "Recombinant PLK1 protein (Active Motif 81429) in SPR; Flag-PBD in Co-IP-MS", "T1 sequence (P53350 2-603)": "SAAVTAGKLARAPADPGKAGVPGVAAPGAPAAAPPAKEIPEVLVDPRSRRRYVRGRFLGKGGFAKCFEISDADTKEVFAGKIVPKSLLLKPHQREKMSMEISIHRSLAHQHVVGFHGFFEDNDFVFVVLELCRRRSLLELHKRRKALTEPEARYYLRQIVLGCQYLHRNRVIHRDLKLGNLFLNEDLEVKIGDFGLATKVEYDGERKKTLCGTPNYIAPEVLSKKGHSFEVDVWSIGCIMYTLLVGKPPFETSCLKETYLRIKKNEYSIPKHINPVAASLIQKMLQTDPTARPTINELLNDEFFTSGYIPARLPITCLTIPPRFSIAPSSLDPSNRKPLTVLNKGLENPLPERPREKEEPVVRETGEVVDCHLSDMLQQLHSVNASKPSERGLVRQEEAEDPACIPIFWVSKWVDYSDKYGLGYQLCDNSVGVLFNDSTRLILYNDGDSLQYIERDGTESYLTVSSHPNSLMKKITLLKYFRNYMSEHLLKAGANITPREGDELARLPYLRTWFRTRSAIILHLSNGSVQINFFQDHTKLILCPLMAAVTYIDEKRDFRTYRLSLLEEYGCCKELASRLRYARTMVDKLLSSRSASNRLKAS", "assay": "SPR (Biacore T200, immobilized PLK1); supported by T1rho NMR, CETSA, Co-IP-MS, in vitro kinase assay (IC50 […])", "type": "binding", "data": [{"smiles": "CN(C)CCN1C(=O)c2cccc3c(S(=O)(=O)NCc4ccc(C(F)(F)F)cc4)ccc(c23)C1=O", "note": "[B4]", "values": [{"measurement": "Kd", "value": "~5.6", "unit": "µM"}]}]}
